Structures are written as SMILES.

Consider one compound from paper PMC8945229, “Development and Biological Characterization of a Novel Selective TrkA Agonist with Neuroprotective Properties against Amyloid Toxicity” (Biomedicines, 2022).

Holding throughout (type): cell-based
The test system of assay [1] is HEK cells transfected with p75NTR. The assay is described as follows: CellTox assay in serum-starved HEK cells transfected with p75NTR. The conditions noted are these: 500 nM, 24hrs. The procedure:
(A) HEK cells transfected with p75NTR and Traf6 were treated with ENT-A013 (500nM) or NGF (100ng/ml) for 30’ and then were subjected to immunoprecipitation experiments against p75.
(C) HEK cells transfected with p75NTR were starved from serum and treated with ENT-A013 (500nM) or NGF (100ng/ml) for 24hrs and subsequently subjected to CellTox assay. […]
difference between ENT-A013 treated group and negative control (Serum Free).
(1 picture or pasted object on this page, not shown here)

In assay [2] the target is T1, p75^NTR (Homo sapiens, UniProt P08138).
T1 construct: expressed in transfected cells; host or cells: HEK293T (transient, lipofectamine)
Kind of assay: p75NTR activation in HEK cells transfected with p75NTR and Traf6 (immunoprecipitation). The following applies: 500 nM, 30′. The procedure: PC12 and HEK293T cells were obtained from LGC Promochem GmbH (Teddington, UK) and cultured under the conditions specified by the manufacturer. NIH3T3 cells were stably transfected with human TrkB plasmid. PC12 cells were grown in DMEM medium (11965084, Gibco, Grand Island, NY, USA) containing 10% Horse Serum (16050122, Gibco, Grand Island, NY, USA), 5% Fetal Bovine Serum (10270106, Gibco, Grand Island, NY, USA), 100 units/mL Penicillin and 0.1 mg/mL Streptomycin (15140122, Gibco, Grand Island, NY, USA) at 5% CO2 and 37 °C. Cells were used between passages 5–20. HEK293T and NIH3T3 cells were grown in the same medium as PC12 cells supplemented with 10% Fetal Bovine Serum and lacking Horse Serum. For transient transfection of HEK293T cells, lipofectamine was used and cells were transfected with human p75^NTR and Traf6 plasmids. To determine the intracellular activity of endogenous secretases, we tagged (tGFP) a truncated mutant (Tm) of APP containing the original amino acids sequence from M516 to N773. This Tm conserves the secretases cleavage sites, clathrin binding site, tau protein binding site, collagen binding site and some glycosylation sites critical for protein localization and intracellular trafficking. The cDNA of the TmAPP gene was amplified by PCR and subcloned into pturbo-GFP vector. […]

For assay [3], the system named is Erk1/2. Kind of assay: Erk1/2 phosphorylation in PC12 cells (Western blot). On the procedure: For immunoprecipitation experiments PC12 or HEK293T, cells were used when at 70–80% confluent. Cells were starved of serum for 4 h and subsequently treated with 100 ng/mL NGF or 500 nM of compound ENT-A013 for 30′. Cells were then lysed in Pierce™ IP Lysis Buffer (87788, Thermo Fischer Scientific, Waltham, MA, USA) containing proteases (539138, Calbiochem, Darmstadt, Germany) and phosphatase inhibitors (524629, Calbiochem, Darmstadt, Germany). Lysates were then immunoprecipitated overnight at 4 °C with TrkA antibody (1:100, 06-574, Sigma-Aldrich, St. Louis, MO, USA) (Table S1) or p75^NTR antibody (1:100, ab6172, Abcam plc., Cambridge, UK) followed by 4 h incubation with protein G-plus agarose beads (sc-2002, Santa Cruz Biotechnology, Inc., Dallas, TX, USA). Beads were then collected, washed 3X with lysis buffer, resuspended in SDS loading buffer and subjected to Western blot against phosphorylated Tyrosine (1:1000, BAM1676, R&D Systems, Inc., Minneapolis, MN, USA) or Traf6 antibody (1:2000, ab33915, Abcam, plc., Cambridge, UK). Whole cell lysates were subjected to Western blot against TrkA (1:1000, 06-574, Sigma-Aldrich, St. Louis, MO, USA), phosphorylated TrkB (1:1000, ABN1381, Sigma-Aldrich, St. Louis, MO, USA), phosphorylated TrkC (1:1000, STJ90960, St John’s Laboratory, Ltd., London, UK), TrkB (1:1000, 07-225-I, Sigma-Aldrich, St. Louis, MO, USA), TrkC (1:1000, C44H5, Cell Signaling Technology, Danvers, MA, USA), p75 (1:1000, 839701, Biolegend, Inc., San Diego, CA, USA), Traf6 (1:2000, ab33915, Abcam, plc., Cambridge, UK) phosphorylated Akt (1:1000, 9721S, Cell Signaling Technology, Danvers, MA, USA), phosphorylated Erk1/2 (1:1000, 9101S, Cell Signaling Technology, Danvers, MA, USA), total Akt (1:1000, 4691S Cell Signaling Technology, Danvers, MA, USA) and total Erk1/2 (1:1000, 4695S, Cell Signaling Technology, Danvers, MA, USA).
(In western blotting, separated proteins are transferred to a membrane and probed.)

T1 sequence (P08138 29-427): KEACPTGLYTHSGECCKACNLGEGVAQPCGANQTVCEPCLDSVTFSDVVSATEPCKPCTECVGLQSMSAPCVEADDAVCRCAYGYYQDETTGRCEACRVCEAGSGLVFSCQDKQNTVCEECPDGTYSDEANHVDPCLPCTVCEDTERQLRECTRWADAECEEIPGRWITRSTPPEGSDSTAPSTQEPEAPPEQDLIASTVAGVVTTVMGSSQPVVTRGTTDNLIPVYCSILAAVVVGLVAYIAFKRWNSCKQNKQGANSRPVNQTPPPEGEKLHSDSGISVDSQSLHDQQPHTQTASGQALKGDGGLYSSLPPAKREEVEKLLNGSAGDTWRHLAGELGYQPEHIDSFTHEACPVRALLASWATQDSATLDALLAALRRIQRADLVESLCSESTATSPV

On to `CC12CCC(O)CC1=CCC1C2CCC2(C)C1CCC21CC1C=CBr` [ENT-A013, (2′R,3S,17S)-2′-(2-Bromovinyl)-5-Androstene-17,1′-Cyclopropan-3-ol], for which, in assay [1], the “cell death vs negative control (Serum Free) (in words)” value was “no significant”. For the same compound, the “p75NTR activation (in words)” value in assay [2] was “does not activate”. Also, in assay [3], the “time Erk1/2 phosphorylation is sustained after treatment” value is given as “up to 1 hr”. Besides, in assay [3] (500 nM, 30′), the Erk1/2 phosphorylation is listed as 2.5 ± 0.6 % of control FC.
